# Assay results from PubChem BioAssay AID256 (DTP/NCI, 2004).
# Several values for one entry are separate records, joined by “and”; a condition that tells them apart may be missing. Identical values can stand only once. Inconclusive results and toxic doses are left out.
# Tested on: CD2F1 mice, L1210 leukemia ip, survival T/C
# Test: NCI In Vivo Anticancer Drug Screen. Data for tumor model L1210 Leukemia (intraperitoneal) in CD2F1 (CDF1) mice
# Settings: endpoint: mean survival time, higher = longer survival
# Procedure, shortened: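 Tumor-bearing mice (transplanted tumor) were split into treated and vehicle control groups, and the measured endpoint of each treated group was divided by that of its vehicle controls.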
# [1] = dose: 100.0 mg/kg/injection, schedule: Q01DX009 (ip), vehicle: saline with Tween-80
# [2] = dose: 200.0 mg/kg/injection, schedule: Q01DX009 (ip), vehicle: saline with Tween-80
# [3] = dose: 400.0 mg/kg/injection, schedule: Q01DX009 (ip), vehicle: saline with Tween-80
# [4] = dose: 100.0 mg/kg/injection, schedule: Q01DX001 (ip), vehicle: saline with Tween-80
# [5] = dose: 200.0 mg/kg/injection, schedule: Q01DX001 (ip), vehicle: saline with Tween-80
# [6] = dose: 400.0 mg/kg/injection, schedule: Q01DX001 (ip), vehicle: saline with Tween-80
# [7] = dose: 12.5 mg/kg/injection, schedule: Q04DX003 (ip), vehicle: saline with Tween-80
# [8] = dose: 25.0 mg/kg/injection, schedule: Q04DX003 (ip), vehicle: saline with Tween-80
# [9] = dose: 50.0 mg/kg/injection, schedule: Q04DX003 (ip), vehicle: saline with Tween-80
# [10] = dose: 50.0 mg/kg/injection, schedule: Q01DX001 (ip), vehicle: saline
# [11] = dose: 100.0 mg/kg/injection, schedule: Q01DX001 (ip), vehicle: saline
# [12] = dose: 200.0 mg/kg/injection, schedule: Q01DX001 (ip), vehicle: saline
# [13] = dose: 12.5 mg/kg/injection, schedule: Q01DX009 (ip), vehicle: saline with Tween-80
# [14] = dose: 25.0 mg/kg/injection, schedule: Q01DX009 (ip), vehicle: saline with Tween-80
# [15] = dose: 50.0 mg/kg/injection, schedule: Q01DX009 (ip), vehicle: saline with Tween-80
smiles,measurement,setting,value
Cn1c(=O)[nH]c2c(nc(-c3ccc(Cl)cc3)n2CCc2ccccc2)c1=O,T/C,"dose: 7.8 mg/kg/injection, schedule: Q01DX005 (ip), vehicle: other",100 % of control
same,T/C,"dose: 15.6 mg/kg/injection, schedule: Q01DX005 (ip), vehicle: other",95 % of control
same,T/C,"dose: 31.3 mg/kg/injection, schedule: Q01DX005 (ip), vehicle: other",95 % of control
same,T/C,"dose: 62.5 mg/kg/injection, schedule: Q01DX005 (ip), vehicle: other",95 % of control
same,T/C,"dose: 125.0 mg/kg/injection, schedule: Q01DX005 (ip), vehicle: other",95 % of control
O=C(CNC(=O)Nc1ccc(Cl)c(Cl)c1)NNC(=O)Nc1ccc(F)c(Cl)c1,T/C,[1],96 % of control
same,T/C,[2],95 % of control
same,T/C,[3],91 % of control
Nc1ccc(N)c(N)c1,T/C,"dose: 100.0 mg/kg/injection, schedule: Q04DX002 (ip), vehicle: saline",97 % of control
same,T/C,"dose: 200.0 mg/kg/injection, schedule: Q04DX002 (ip), vehicle: saline",90 % of control
same,T/C,"dose: 400.0 mg/kg/injection, schedule: Q04DX002 (ip), vehicle: saline",97 % of control
O=S(=O)(Nc1ccc(CCc2ccc(NS(=O)(=O)c3ccccc3)cc2)cc1)c1ccccc1,T/C,[4],95 % of control
same,T/C,[5],90 % of control
same,T/C,[6],92 % of control
CCCCCCCCCCCCOc1c(Cl)cc(Cl)cc1Cl,T/C,"dose: 100.0 mg/kg/injection, schedule: Q04DX002 (ip), vehicle: saline with Tween-80",101 % of control
same,T/C,"dose: 200.0 mg/kg/injection, schedule: Q04DX002 (ip), vehicle: saline with Tween-80",101 % of control
same,T/C,"dose: 400.0 mg/kg/injection, schedule: Q04DX002 (ip), vehicle: saline with Tween-80",104 % of control
COc1cc2ccc(CCN)cc2cc1OC,T/C,[7],102 % of control
same,T/C,[8],102 % of control
same,T/C,[9],96 % of control
COc1cccc2c1C(=O)c1c(O)c3c(c(O)c1C2=O)C[C@@](O)(C(=O)CO)C[C@@H]3OC1CC(N)C(OC)C(C)O1 (some centres undefined),T/C,"dose: 0.54 mg/kg/injection, schedule: Q01DX009 (ip), vehicle: saline",159 % of control
same,T/C,"dose: 0.65 mg/kg/injection, schedule: Q01DX009 (ip), vehicle: saline",207 % of control
same,T/C,"dose: 0.9 mg/kg/injection, schedule: Q01DX009 (ip), vehicle: saline",229 % of control
same,T/C,"dose: 1.08 mg/kg/injection, schedule: Q01DX009 (ip), vehicle: saline",319 % of control
same,T/C,"dose: 1.3 mg/kg/injection, schedule: Q01DX001 (ip), vehicle: saline",161 % of control
same,T/C,"dose: 1.8 mg/kg/injection, schedule: Q01DX009 (ip), vehicle: saline",250 % of control
same,T/C,"dose: 2.16 mg/kg/injection, schedule: Q01DX001 (ip), vehicle: saline",161 % of control
same,T/C,"dose: 3.0 mg/kg/injection, schedule: Q01DX009 (ip), vehicle: saline",93 % of control
same,T/C,"dose: 3.6 mg/kg/injection, schedule: Q01DX001 (ip), vehicle: saline",168 % of control and 170 % of control
same,T/C,"dose: 6.0 mg/kg/injection, schedule: Q01DX001 (ip), vehicle: saline",189 % of control and 353 % of control
same,T/C,"dose: 10.0 mg/kg/injection, schedule: Q01DX001 (ip), vehicle: saline",187 % of control and 260 % of control
NC(=O)CC(NC(c1ccccc1)(c1ccccc1)c1ccccc1)C(=O)ON1C(=O)CCC1=O (centres undefined),T/C,"dose: 100.0 mg/kg/injection, schedule: Q01DX001 (ip), vehicle: saline sonified",96 % of control
same,T/C,"dose: 200.0 mg/kg/injection, schedule: Q01DX001 (ip), vehicle: saline sonified",98 % of control
same,T/C,"dose: 400.0 mg/kg/injection, schedule: Q01DX001 (ip), vehicle: saline sonified",105 % of control
CCOC(=O)c1cccc(N(CCOS(C)(=O)=O)CCOS(C)(=O)=O)c1,T/C,"dose: 2.0 mg/kg/injection, schedule: Q01DX010 (ip), vehicle: saline",100 % of control
same,T/C,"dose: 4.0 mg/kg/injection, schedule: Q01DX010 (ip), vehicle: saline",106 % of control
same,T/C,"dose: 8.0 mg/kg/injection, schedule: Q01DX010 (ip), vehicle: saline",119 % of control
same,T/C,"dose: 16.0 mg/kg/injection, schedule: Q01DX010 (ip), vehicle: saline",121 % of control
same,T/C,[10],98 % of control
same,T/C,[11],101 % of control
same,T/C,[12],101 % of control
CCCN1OC2CC/C=C\CCC2C1c1ccccc1 (centres undefined),T/C,"dose: 100.0 mg/kg/injection, schedule: Q01DX009 (ip), vehicle: Klucel (hydroxypropylcellulose) (HPC)",100 % of control
same,T/C,"dose: 100.0 mg/kg/injection, schedule: Q04DX003 (ip), vehicle: other",101 % of control
same,T/C,"dose: 200.0 mg/kg/injection, schedule: Q01DX009 (ip), vehicle: Klucel (hydroxypropylcellulose) (HPC)",100 % of control
same,T/C,"dose: 200.0 mg/kg/injection, schedule: Q04DX003 (ip), vehicle: other",107 % of control
same,T/C,"dose: 400.0 mg/kg/injection, schedule: Q01DX009 (ip), vehicle: Klucel (hydroxypropylcellulose) (HPC)",88 % of control
same,T/C,"dose: 400.0 mg/kg/injection, schedule: Q04DX003 (ip), vehicle: other",106 % of control
Nc1c(Cl)cccc1Cl (tested in a mixture with another compound),T/C,[4],89 % of control
same,T/C,[1],99 % of control
same,T/C,[5],91 % of control
same,T/C,[2],98 % of control
same,T/C,[6],91 % of control
same,T/C,[3],107 % of control
O=C(O)c1ccccc1Nc1ccc(Br)cc1,T/C,[8],95 % of control
same,T/C,[9],104 % of control
same,T/C,"dose: 100.0 mg/kg/injection, schedule: Q04DX003 (ip), vehicle: saline with Tween-80",93 % of control and 112 % of control
same,T/C,"dose: 200.0 mg/kg/injection, schedule: Q04DX003 (ip), vehicle: saline with Tween-80",98 % of control
CC(=O)N(c1ccccc1)C1CCC2(C)C(=CCC3C2CCC2(C)C(C(C)CCCC(C)C)CCC32)C1 (centres undefined),T/C,"dose: 100.0 mg/kg/injection, schedule: Q01DX009 (sc), vehicle: steriod suspending solution",96 % of control
same,T/C,"dose: 100.0 mg/kg/injection, schedule: Q04DX003 (sc), vehicle: steriod suspending solution",95 % of control
same,T/C,"dose: 200.0 mg/kg/injection, schedule: Q01DX009 (sc), vehicle: steriod suspending solution",102 % of control
same,T/C,"dose: 200.0 mg/kg/injection, schedule: Q04DX003 (sc), vehicle: steriod suspending solution",93 % of control
same,T/C,"dose: 400.0 mg/kg/injection, schedule: Q01DX009 (sc), vehicle: steriod suspending solution",102 % of control
same,T/C,"dose: 400.0 mg/kg/injection, schedule: Q04DX003 (sc), vehicle: steriod suspending solution",96 % of control
O=C(CO)c1ccc([N+](=O)[O-])cc1,T/C,"dose: 3.12 mg/kg/injection, schedule: Q01DX009 (ip), vehicle: saline with Tween-80",98 % of control and 101 % of control
same,T/C,"dose: 6.25 mg/kg/injection, schedule: Q01DX009 (ip), vehicle: saline with Tween-80",96 % of control and 101 % of control
same,T/C,[13],98 % of control and 101 % of control
same,T/C,[14],95 % of control and 96 % of control
same,T/C,[15],101 % of control
same,T/C,[1],95 % of control and 101 % of control
CCOP(=O)(NCCCSC)OCC,T/C,"dose: 5.0 mg/kg/injection, schedule: Q01DX009 (ip), vehicle: saline",96 % of control
same,T/C,"dose: 10.0 mg/kg/injection, schedule: Q01DX009 (ip), vehicle: saline",97 % of control
same,T/C,"dose: 20.0 mg/kg/injection, schedule: Q01DX009 (ip), vehicle: saline",88 % of control
O=C(O)c1c(O)cccc1O,T/C,[10],98 % of control
same,T/C,[11],98 % of control
same,T/C,[12],101 % of control
Cc1ccc(C#CC(C)(C)O)cn1,T/C,[1],94 % of control
same,T/C,[2],102 % of control
same,T/C,[3],122 % of control
CC([NH-])CC[NH-].O=C(O)C(=O)O.[Pt+2] (centres undefined),T/C,"dose: 3.12 mg/kg/injection, schedule: Q04DX003 (ip), vehicle: saline with Tween-80",152 % of control
same,T/C,"dose: 6.25 mg/kg/injection, schedule: Q04DX003 (ip), vehicle: saline with Tween-80",235 % of control
same,T/C,[7],265 % of control
CC(C)C(=O)Nc1ccc(Cl)cc1,T/C,[1],100 % of control
same,T/C,[2],97 % of control
O=c1ccccn1CCc1ccccc1,T/C,[13],101 % of control
same,T/C,[14],98 % of control
same,T/C,[15],101 % of control
O=[N+]([O-])c1cccc2ccccc12,T/C,"dose: 100.0 mg/kg/injection, schedule: Q04DX003 (ip), vehicle: saline",101 % of control
same,T/C,"dose: 200.0 mg/kg/injection, schedule: Q04DX003 (ip), vehicle: saline",103 % of control
same,T/C,"dose: 400.0 mg/kg/injection, schedule: Q04DX003 (ip), vehicle: saline",86 % of control
